Target: glucocorticoid receptor (Homo sapiens (Human), UniProt P04150)
Test: HepG2 TAT assay: inhibition of dexamethasone-induced tyrosine aminotransferase (TAT) activity
Format: cell-based
Settings: HepG2 cells, challenge of 100 nM dexamethasone, 18-24 hr; IC50 converted to Ki by Cheng and Prusoff equation
Method: Glucocorticoid mediated activation of TAT occurs by transactivation of glucocorticoid response elements in the TAT promoter by glucocorticoid receptor-agonist complex.
HepG2 cells were cultured using MEME media supplemented with 10% (v/v) foetal bovine serum; 2 mM L-glutamine and 1% (v/v) NEAA at 37° C., 5%/95% (v/v) CO2/air.
Compounds were serially half log diluted in 100% (v/v) dimethylsulphoxide from a 10 mM stock.
HepG2 cells were then lysed with 30 μl of cell lysis buffer containing a protease inhibitor cocktail for 15 minutes at 4° C. […] After 2 hours incubation at 37° C. the reaction was terminated by the addition of 15 μl of 10M aqueous potassium hydroxide solution, and the plates incubated for a further 30 minutes at 37° C.
[compound] and fitting the data to a 4 parameter logistic equation.

Chain of glucocorticoid receptor (P04150 whole entry): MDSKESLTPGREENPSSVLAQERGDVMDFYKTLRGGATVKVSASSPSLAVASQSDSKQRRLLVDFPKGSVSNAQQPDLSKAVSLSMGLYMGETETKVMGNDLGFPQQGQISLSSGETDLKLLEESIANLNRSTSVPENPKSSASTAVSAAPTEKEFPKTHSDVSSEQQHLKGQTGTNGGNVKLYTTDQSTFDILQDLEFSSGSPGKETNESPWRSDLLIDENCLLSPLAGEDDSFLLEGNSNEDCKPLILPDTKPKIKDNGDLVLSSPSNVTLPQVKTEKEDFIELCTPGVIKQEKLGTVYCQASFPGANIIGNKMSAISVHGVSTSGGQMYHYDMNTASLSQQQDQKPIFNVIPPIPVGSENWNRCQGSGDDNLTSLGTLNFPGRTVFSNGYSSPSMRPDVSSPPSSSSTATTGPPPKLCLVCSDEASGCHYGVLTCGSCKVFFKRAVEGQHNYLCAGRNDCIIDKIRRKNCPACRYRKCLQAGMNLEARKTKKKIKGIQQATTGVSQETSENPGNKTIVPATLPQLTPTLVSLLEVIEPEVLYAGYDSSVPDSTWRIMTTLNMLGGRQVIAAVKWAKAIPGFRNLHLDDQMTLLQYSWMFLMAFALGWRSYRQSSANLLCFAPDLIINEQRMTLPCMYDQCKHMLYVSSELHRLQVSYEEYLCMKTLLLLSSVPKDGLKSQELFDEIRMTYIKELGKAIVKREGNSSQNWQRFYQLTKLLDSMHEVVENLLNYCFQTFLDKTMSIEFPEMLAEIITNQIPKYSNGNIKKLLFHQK

SMILES	Ki [nM]
Cc1cc2c(cnn2-c2ccc(F)cc2)cc1[C@@]12CN(C(=O)c3cc(C#N)ccn3)C[C@@H]1[C@H]2c1ccccc1 (single isomer, unassigned) [Example 149, 2-(1-(1-(4-fluorophenyl)-6-methyl-1H-indazol-5-yl)-6-phenyl-3-azabicyclo[3.1.0]hexane-3-carbonyl)isonicotinonitrile]	13
Cc1cc2c(cnn2-c2ccc(F)cc2)cc1[C@@]12CN(C(=O)c3cc(C(F)(F)F)ccn3)C[C@@H]1[C@H]2c1ccccc1 (single isomer, unassigned) [Example 150, (1-(1-(4-fluorophenyl)-6-methyl-1H-indazol-5-yl)-6-phenyl-3-azabicyclo[3.1.0]hexan-3-yl)(4-(trifluoromethyl)pyridin-2-yl)methanone]	18
Cc1ccc(C(=O)N2C[C@@H]3[C@@H](c4ccccc4)[C@]3(c3cc4cnn(-c5ccc(F)cc5)c4cc3C)C2)nc1 (single isomer, unassigned) [Example 151, (1-(1-(4-fluorophenyl)-6-methyl-1H-indazol-5-yl)-6-phenyl-3-azabicyclo[3.1.0]hexan-3-yl)(5-methylpyridin-2-yl)methanone]	28
Cc1cc2c(cnn2-c2ccc(F)cc2)cc1[C@@]12CN(C(=O)c3ccc(F)cn3)C[C@@H]1[C@H]2c1ccccc1 (single isomer, unassigned) [Example 152, (1-(1-(4-fluorophenyl)-6-methyl-1H-indazol-5-yl)-6-phenyl-3-azabicyclo[3.1.0]hexan-3-yl)(5-fluoropyridin-2-yl)methanone]	20
Cc1nc(C(=O)N2C[C@@H]3[C@@H](c4ccccc4)[C@]3(c3cc4cnn(-c5ccc(F)cc5)c4cc3C)C2)cs1 (single isomer, unassigned) [Example 153, (1-(1-(4-fluorophenyl)-6-methyl-1H-indazol-5-yl)-6-phenyl-3-azabicyclo[3.1.0]hexan-3-yl)(2-methylthiazol-4-yl)methanone]	38
Cc1cc2c(cnn2-c2ccc(F)cc2)cc1[C@@]12CN(C(=O)c3ncccc3C#N)C[C@@H]1[C@H]2c1ccccc1 (single isomer, unassigned) [Example 155, 2-(1-(1-(4-fluorophenyl)-6-methyl-1H-indazol-5-yl)-6-phenyl-3-azabicyclo[3.1.0]hexane-3-carbonyl)nicotinonitrile]	19
Cc1cc2c(cnn2-c2ccc(F)cc2)cc1[C@@]12CN(C(=O)c3ccc(C#N)cn3)C[C@@H]1[C@H]2c1ccccc1 (single isomer, unassigned) [Example 163, 6-(1-(1-(4-fluorophenyl)-6-methyl-1H-indazol-5-yl)-6-phenyl-3-azabicyclo[3.1.0]hexane-3-carbonyl)nicotinonitrile]	19
Cc1cc2c(cnn2-c2ccc(F)cc2)cc1[C@@]12CN(C(=O)c3ccncc3)C[C@@H]1[C@H]2c1ccccc1 (single isomer, unassigned) [Example 165, (1-(1-(4-fluorophenyl)-6-methyl-1H-indazol-5-yl)-6-phenyl-3-azabicyclo[3.1.0]hexan-3-yl)(pyridin-4-yl)methanone]	84
Cc1cc2c(cnn2-c2ccc(F)cc2)cc1[C@@]12CN(C(=O)c3ccc(C4CC4)cn3)C[C@@H]1[C@H]2c1ccccc1 (single isomer, unassigned) [Example 167, (5-cyclopropylpyridin-2-yl)(1-(1-(4-fluorophenyl)-6-methyl-1H-indazol-5-yl)-6-phenyl-3-azabicyclo[3.1.0]hexan-3-yl)methanone]	21
Cc1cc2c(cnn2-c2ccc(F)cc2)cc1[C@@]12CN(C(=O)c3ncnn3C)C[C@@H]1[C@H]2c1ccccc1 (single isomer, unassigned) [Example 170, (1-(1-(4-fluorophenyl)-6-methyl-1H-indazol-5-yl)-6-phenyl-3-azabicyclo[3.1.0]hexan-3-yl)(1-methyl-1H-1,2,4-triazol-5-yl)methanone]	41
Cc1cc2c(cnn2-c2ccc(F)cc2)cc1[C@@]12CN(C(=O)c3ncn(C)n3)C[C@@H]1[C@H]2c1ccccc1 (single isomer, unassigned) [Example 172, (1-(1-(4-fluorophenyl)-6-methyl-1H-indazol-5-yl)-6-phenyl-3-azabicyclo[3.1.0]hexan-3-yl)(1-methyl-1H-1,2,4-triazol-3-yl)methanone]	26
CO[C@@]1(c2ccccc2)C[C@H]2CN(S(=O)(=O)c3cnn(C)n3)C[C@@]2(c2cc3cnn(-c4ccc(F)cc4)c3cc2C)C1 (stereo in doubt) [Example 19, 1-(4-fluorophenyl)-5-(5-methoxy-2-((2-methyl-2H-1,2,3-triazol-4-yl)sulfonyl)-5-phenylhexahydrocyclopenta[c]pyrrol-3a(1H)-yl)-6-methyl-1H-indazole]	47
Cc1cc2c(cnn2-c2ccc(F)cc2)cc1[C@@]12CN(S(=O)(=O)c3cnn(C)n3)C[C@@H]1[C@@H]2CO (stereo in doubt) [Example 48, (1-(1-(4-fluorophenyl)-6-methyl-1H-indazol-5-yl)-3-((2-methyl-2H-1,2,3-triazol-4-yl)sulfonyl)-3-azabicyclo[3.1.0]hexan-6-yl) methanol]	570
Cc1cc2c(cnn2-c2ccc(F)cc2)cc1[C@@]12CN(S(=O)(=O)c3cnn(C)n3)C[C@@H]1[C@H]2COc1ccccc1 (stereo in doubt) [Example 49, 1-(4-fluorophenyl)-6-methyl-5-(3-((2-methyl-2H-1,2,3-triazol-4-yl)sulfonyl)-6-(phenoxymethyl)-3-azabicyclo[3.1.0]hexan-1-yl)-1H-indazole]	120
Cc1cc2c(cnn2-c2ccc(F)cc2)cc1[C@@]12CN(S(=O)(=O)c3cnn(C)n3)C[C@@H]1[C@H]2COC(C)C (stereo in doubt) [Example 51, 1-(4-fluorophenyl)-5-(6-(isopropoxymethyl)-3-((2-methyl-2H-1,2,3-triazol-4-yl)sulfonyl)-3-azabicyclo[3.1.0]hexan-1-yl)-6-methyl-1H-indazole]	290
Cc1cc2c(cnn2-c2ccc(F)cc2)cc1[C@]12CN(S(=O)(=O)c3cnn(C)n3)C[C@H]1[C@@H]2C(=O)Nc1ccc(F)cn1 (stereo in doubt) [Example 54, 1-(1-(4-fluorophenyl)-6-methyl-1H-indazol-5-yl)-N-(5-fluoropyridin-2-yl)-3-((2-methyl-2H-1,2,3-triazol-4-yl)sulfonyl)-3-azabicyclo[3.1.0]hexane-6-carboxamide]	33
Cc1cc2c(cnn2-c2ccc(F)cc2)cc1[C@@]12CN(S(=O)(=O)c3cnn(C)n3)C[C@@H]1[C@H]2C(=O)N1CCCC1 (stereo in doubt) [Example 55, (1-(1-(4-fluorophenyl)-6-methyl-1H-indazol-5-yl)-3-((2-methyl-2H-1,2,3-triazol-4-yl)sulfonyl)-3-azabicyclo[3.1.0]hexan-6-yl)(pyrrolidin-1-yl)methanone]	300
Cc1cc2c(cnn2-c2ccc(F)cc2)cc1[C@@]12CN(S(=O)(=O)c3cnn(C)n3)C[C@@H]1[C@H]2C(=O)Nc1ccc(F)cn1 (stereo in doubt) [Example 56, 1-(1-(4-fluorophenyl)-6-methyl-1H-indazol-5-yl)-N-(5-fluoropyridin-2-yl)-3-((2-methyl-2H-1,2,3-triazol-4-yl)sulfonyl)-3-azabicyclo[3.1.0]hexane-6-carboxamide]	38
Cc1cc2c(cnn2-c2ccc(F)cc2)cc1[C@]12CN(S(=O)(=O)c3cnn(C)n3)C[C@H]1[C@@H]2C(=O)Nc1ccc(F)cn1 (stereo in doubt) [Example 57, 1-(1-(4-fluorophenyl)-6-methyl-1H-indazol-5-yl)-N-(5-fluoropyridin-2-yl)-3-((2-methyl-2H-1,2,3-triazol-4-yl)sulfonyl)-3-azabicyclo[3.1.0]hexane-6-carboxamide]	190
CC(=O)N1C[C@H]2[C@H](C(=O)Nc3ccc(F)cn3)[C@@]2(c2cc3cnn(-c4ccc(F)cc4)c3cc2C)C1 (stereo in doubt) [Example 68, 3-acetyl-1-(1-(4-fluorophenyl)-6-methyl-1H-indazol-5-yl)-N-(5-fluoropyridin-2-yl)-3-azabicyclo[3.1.0]hexane-6-carboxamide]	90
Cc1cc2c(cnn2-c2ccc(F)cc2)cc1[C@@]12CN(C(=O)c3ccccc3)C[C@@H]1[C@H]2c1ccccc1 (stereo in doubt) [Example 110, (1-(1-(4-fluorophenyl)-6-methyl-1H-indazol-5-yl)-6-phenyl-3-azabicyclo[3.1.0]hexan-3-yl)(phenyl)methanone]	23
Cc1cc2c(cnn2-c2ccc(F)cc2)cc1[C@@]12CN(C(=O)c3cccc(C#N)c3)C[C@@H]1[C@H]2c1ccccc1 (stereo in doubt) [Example 114, 3-(1-(1-(4-fluorophenyl)-6-methyl-1H-indazol-5-yl)-6-phenyl-3-azabicyclo[3.1.0]hexane-3-carbonyl)benzonitrile]	26
Cc1cc2c(cnn2-c2ccc(F)cc2)cc1[C@@]12CN(C(=O)c3ccc(C#N)cc3)C[C@@H]1[C@H]2c1ccccc1 (stereo in doubt) [Example 115, 4-(1-(1-(4-fluorophenyl)-6-methyl-1H-indazol-5-yl)-6-phenyl-3-azabicyclo[3.1.0]hexane-3-carbonyl)benzonitrile]	36
Cc1cc2c(cnn2-c2ccc(F)cc2)cc1[C@@]12CN(C(=O)c3ccccn3)C[C@@H]1[C@H]2c1ccccc1 (stereo in doubt) [Example 116, (1-(1-(4-fluorophenyl)-6-methyl-1H-indazol-5-yl)-6-phenyl-3-azabicyclo[3.1.0]hexan-3-yl)(pyridin-2-yl)methanone]	31
